According to patent EP0368756A1, “Dibenzocycloheptene derivatives, process for their preparation and their use as medicaments” (ROUSSEL-UCLAF, priority 1988, dated 1990):

Legend:
[1] = tested on: couche CA₁ de l'hippocampe; assay: Neuronal protective effect in the hippocampus after stereotaxic quinolinic acid injection; assay type: in vivo; details: anaesthetised rat; 20 mg/kg intraperitoneal 30 min before quinolinic acid (5 micrograms) into right hippocampus; cresyl violet histology one week later
Procedure: Recherche de l'effet protecteur neuronal dans l'hippocampe.
L'essai a été réalisé chez le rat anesthésié. Une injection stéréotaxique d'acide quinolinique (5 microgrammes) est réalisée dans l'hippocampe droit. Le produit à étudier (ou le véhicule seul pour le lot d'animaux témoins) est administré par voie intrapéritonéale 30 minutes auparavant.
Une semaine plus tard, les cerveaux sont prélevés et coupés en tranches fines. Les tranches sont colorées au crésyl violet et photographiées.
Chez les animaux témoins, l'acide quinolinique détruit la couche CA₁ de l'hippocampe droit tandis que l'hippocampe gauche (contrôle) non injecté, est intacte. L'hippocampe gauche des animaux n'a reçu aucun traitement. Chez les animaux ayant reçu une administration de 20 mg/kg du produit de l'exemple 7, par voie intrapéritonéale, la couche CA₁ de l'hippocampe droit est protégée donc identique à celle de l'hippocampe gauche qui n'a pas reçu d'injection d'acide quinolinique.

[2] = tested on: convulsions toniques entrainées par le pentétrazol; assay: Anticonvulsant activity against pentetrazol-induced tonic convulsions; assay type: in vivo, souris; details: sc; mouse; pentetrazol 160 mg/kg s.c. given 1 hour after the product; tonic convulsions noted for 30 minutes; read-out: DA₅₀ ou dose qui diminue de 50 % le nombre de convulsions toniques entrainées par le pentétrazol
Procedure: Activité anticonvulsivante chez la souris.
L'essai est réalisé sur des lots de 10 souris. L'agent convulsivant est le pentétrazol, en solution aqueuse à la dose de 160 mg/kg s.c. sous un volume de 0,5 ml/20 g, administré 1 heure après le produit de l'exemple 7. Les animaux sont isolés et les convulsions toniques sont notées pendant 30 minutes.
La DA₅₀ ou dose qui diminue de 50 % le nombre de convulsions toniques entrainées par le pentétrazol est de 2,3 mg/kg.

Compound: Nc1ccc2c(c1)C1Cc3ccccc3C2N1 (centres unmarked) [exemple 7, 8-amino 10,11-dihydro 5,10-imino 5H-dibenzo[a,d]-cycloheptène]
- effet protecteur neuronal dans l'hippocampe [1]: protégée
- ED50 [2]: 2.3 mg/kg
